Experimental data reported in US20090062255A1, “TUMOR-TARGETING EVALUATION METHODOLOGY AND COMPOUNDS RELATED THERETO” (THALLION PHARMACEUTICALS INC., priority 2007, published 2009).
Where “and” joins values, the source holds several entries; their conditions need not be identical. Identical values can stand only once.

How the values were obtained:
PBR [1] = biological target: T1, PBR (Rattus norvegicus, UniProt P16257); assay: In vivo PBR occupancy by PET (11C-(R)-PK11195) following IP administration; conditions: 30 mg/kg IP, 30 min before scan, mean±S.D.
T1 construct: from tissue; host or cells: orthotopic rat C6 glioma in Sprague-Dawley rats, in vivo
Description: (§1) (R)-1-(2-chlorophenyl)-N-methyl-N-(1-methyl-propyl)-3-isoquinoline carboxamide (R N-desmethyl PK11195), the precursor for the radioisotope-labeled (R) —PK11195, was purchased from ABX (Radeburg, Germany). The synthesis of ^11C-(R)-PK11195 was accomplished by a modification of the method of Camsonne et al. (J. Label. Compd. Radiopharm., 21: 985-991,1984). Briefly, ^11C-methyl iodide (^11C—CH3I) was transferred by a stream of nitrogen gas at a flow rate of 10 ml/min into a reaction medium containing 1 mg or R—N-desmethyl PK11195 previously dissolved in 0.5 mL of dimethylsulfoxide (DMSO) and about 20 mg of sodium hydroxide. The reaction was initiated at room temperature, with a bubbling of the ^11C—CH3I being continued over a 5 minute period. After bubbling was complete, the reaction mixture was left standing for 5 minutes. Purification was performed by high pressure liquid chromatography (HPLC) using a reverse-phase C18 column and a methanol:ammonium formate (20 mM) (80:20) mixture and a mobile phase at a flow rate of 3 mL/min. ^11C—(R) —PK11195 was eluted at 11 minutes and obtained with a specific radioactivity of […].
In vivo PET studies were performed 14 days post tumor implantation. […] Attenuation correction factors, for each rat (total of 7 animals), were determined using a 10 min ^57Co transmission scan acquired immediately prior to the dynamic scan. […]

PBR [2] = biological target: T1, PBR; assay: In vivo PBR occupancy by PET (11C-(R)-PK11195) following IV bolus and CIV infusion
Description: as §1
The above study was repeated but his time ECO-4601 was administered as a bolus push followed by a continuous intra-venous (CIV) infusion of ECO-4601 obtained in the steady-state condition through the second 11C-PK11195 PET scan. […]
To determine a mean tumor binding potential (B.P.) (baseline) and the mean B.P., the simplified reference tissue method was utilized comparing the ratio of tumor to normal brain. As a result, mean tumor binding potential (B.P.) (baseline) was calculated to be 2.19±0.16 (mean±SEM) and the mean B.P. (ECO-4601) was calculated to be 0.14±0.13 (mean±SEM).

human EGFR = biological target: T2, human EGFR (Homo sapiens, UniProt P00533); assay: Upstate Kinase Profiler, EGFR; format: biochemical
T2 construct: purchased Upstate (Kinase Profiler Service; Dundee, UK)
Description: (§2) Unlike current Ras signalling pathway inhibitors, ECO-4601 is not a direct kinase inhibitor. This was documented by evaluating the effect of ECO-4601 on human EGFR, c-RAF, MEK1, MAPK1 (ERK1) and MAPK2 (ERK2) kinase-activity (Upstate Kinase Profiler™ Service; Dundee, UK). ECO-4601 was tested at 0.5 μM and 5 μM in a final volume of 25 μL according to standard protocols developed by Upstate Ltd. Briefly, purified recombinant human enzymes were incubated with 25 mM Tris pH 7.5 containing EGTA, a specific substrate and γ-^32P-ATP. The reaction was initiated with MgATP mix and incubated for 40 minutes at RT. The reaction was stopped by the addition of 5 μL of a 3% phosphoric acid solution; aliquots were spotted on filters and counted. Detailed procedures are available on the Millipore Upstate website.

human MEK1 = biological target: T3, human MEK1 (Homo sapiens, UniProt Q02750); assay: Upstate Kinase Profiler, MEK1; format: biochemical
T3 construct: purchased Upstate (Kinase Profiler Service; Dundee, UK)
Description: as §2

human MiaPaCa-2 tumors = assay: Human MiaPaCa-2 tumors in mice, antitumor efficacy; format: in vivo; conditions: 30 mg/kg SC, Q1D×5 for 3 wk, established MiaPaCa-2 tumors
Description: Mice bearing established (100 mm^3) human MiaPaCa-2 tumors were dosed with 30 mg/kg (Q1D×5 for 3 wk; SC administration). The positive control group was treated with gemcitabine at 60 mg/kg once a day on Monday and Thursday (TWx4). ECO-4601 as a single agent was statistically different from the vehicle control group (P ˜0.008) following SC daily dosing resulting in a T/C of 56% (FIG. 12).

[3] = individual rats, IV bolus 30 mg/kg then CIV 5 mg/kg/hour, listed as ECO-4601

T2 sequence (P00533 25-1210): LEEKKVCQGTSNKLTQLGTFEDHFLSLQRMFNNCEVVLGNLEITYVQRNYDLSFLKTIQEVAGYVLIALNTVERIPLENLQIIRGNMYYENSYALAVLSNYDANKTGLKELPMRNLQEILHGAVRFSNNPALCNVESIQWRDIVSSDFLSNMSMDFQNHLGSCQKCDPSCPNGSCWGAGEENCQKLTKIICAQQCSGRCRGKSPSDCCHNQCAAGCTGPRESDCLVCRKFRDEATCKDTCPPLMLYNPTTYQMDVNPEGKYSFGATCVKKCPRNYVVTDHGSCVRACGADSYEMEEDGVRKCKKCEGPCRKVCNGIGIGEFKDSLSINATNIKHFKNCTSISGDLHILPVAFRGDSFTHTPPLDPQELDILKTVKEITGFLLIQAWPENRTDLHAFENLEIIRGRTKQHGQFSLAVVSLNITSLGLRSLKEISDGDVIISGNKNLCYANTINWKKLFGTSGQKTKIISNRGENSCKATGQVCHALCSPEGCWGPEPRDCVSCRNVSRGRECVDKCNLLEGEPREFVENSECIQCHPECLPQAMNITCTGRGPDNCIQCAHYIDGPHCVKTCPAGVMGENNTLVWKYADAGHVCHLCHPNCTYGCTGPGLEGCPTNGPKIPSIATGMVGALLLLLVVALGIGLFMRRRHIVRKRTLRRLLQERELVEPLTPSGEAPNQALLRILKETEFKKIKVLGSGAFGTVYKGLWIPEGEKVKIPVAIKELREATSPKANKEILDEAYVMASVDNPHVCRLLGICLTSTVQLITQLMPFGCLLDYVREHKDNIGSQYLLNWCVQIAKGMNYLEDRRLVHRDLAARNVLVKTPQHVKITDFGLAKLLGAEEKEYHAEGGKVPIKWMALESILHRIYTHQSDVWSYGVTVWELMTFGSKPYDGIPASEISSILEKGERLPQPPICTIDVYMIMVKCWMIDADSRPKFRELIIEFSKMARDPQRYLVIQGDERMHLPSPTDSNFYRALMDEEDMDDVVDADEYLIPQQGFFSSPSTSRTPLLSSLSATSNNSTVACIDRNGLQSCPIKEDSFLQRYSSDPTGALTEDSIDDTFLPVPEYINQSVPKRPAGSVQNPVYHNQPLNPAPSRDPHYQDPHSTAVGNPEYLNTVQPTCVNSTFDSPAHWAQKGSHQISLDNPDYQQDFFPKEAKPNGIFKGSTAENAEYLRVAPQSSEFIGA
T3 sequence (Q02750 whole entry): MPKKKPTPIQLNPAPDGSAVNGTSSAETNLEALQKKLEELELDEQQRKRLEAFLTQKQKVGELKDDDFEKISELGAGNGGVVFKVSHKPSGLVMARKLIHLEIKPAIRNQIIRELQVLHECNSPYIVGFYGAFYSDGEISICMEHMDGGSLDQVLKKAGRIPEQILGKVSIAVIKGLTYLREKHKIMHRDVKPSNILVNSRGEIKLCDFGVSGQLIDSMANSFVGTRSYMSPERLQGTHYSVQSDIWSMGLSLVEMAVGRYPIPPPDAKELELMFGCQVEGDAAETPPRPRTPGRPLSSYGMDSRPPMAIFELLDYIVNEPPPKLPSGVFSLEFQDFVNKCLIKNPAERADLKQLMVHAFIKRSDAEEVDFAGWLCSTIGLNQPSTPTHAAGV

CC(C)=CCC/C(C)=C/CC/C(C)=C/CN1C(=O)c2cccc(O)c2Nc2c(O)cc(O)cc21 [Compound 1, 10-farnesyl-4,6,8-trihydroxy-5,10-dihydrodibenzo[b,e][1,4]diazepin-11-one]
mean tumor binding potential (B.P.) after compound (PBR [1]): 1.05±0.34
mean tumor binding potential (B.P.) after compound (PBR [2]; CIV infusion, mean±SEM, n=6): 0.14±0.13
reduction of PBR occupancy for 11C-(R)-PK11195 binding, average (PBR [2]; CIV infusion, n=6): 91.67%
% PBR occupancy (PBR [2]; [3]): 100% and 30% and 50%
Binding Potential (ECO-4601) (PBR [2]; [3]): 0 (5×) and 1.81 and 0.84
direct inhibition of EGFR kinase activity (in words) (human EGFR; 0.5 μM and 5 μM): does not directly inhibit
activity at 0.5 µM (human EGFR; EGFR, 0.5 μM, % of enzyme activity over positive control, read-out: Kinase Activity (%) ± SD): 128 ± 6%
activity at 5 µM (human EGFR; EGFR, 5 μM, % of enzyme activity over positive control, read-out: Kinase Activity (%) ± SD): 127 ± 9%
direct inhibition of MEK1 kinase activity (in words) (human MEK1; 0.5 μM and 5 μM): does not directly inhibit
activity at 0.5 µM (human MEK1; MEK1, 0.5 μM, % of enzyme activity over positive control, read-out: Kinase Activity (%) ± SD): 106 ± 2%
activity at 5 µM (human MEK1; MEK1, 5 μM, % of enzyme activity over positive control, read-out: Kinase Activity (%) ± SD): 98 ± 1%
T/C (human MiaPaCa-2 tumors): 56%
